Earlier results as cited in patent US8642630B2, “Endogeneous repair factor production accelerators” (Ono Pharmaceutical Co., Ltd., priority 2002, dated 2014).
Where a name gives a salt, the structure may show the parent alone.

Tested on: vascular endothelial cells
Conditions: cited from earlier work

## CC#CCC(C)[C@H](O)/C=C/[C@@H]1[C@H]2c3cccc(CCCC(=O)O)c3O[C@H]2C[C@H]1O (mixture of isomers) [Beraprost, (±)-(1R,2R,3aS,8bS)-2,3,3a,8b-terahydro-2-hydroxy-1-[(E)-(3S,4RS)-3-hydroxy-4-methyl-1-octen-6-ynyl]-1H-cyclopenta[b]benzofuran-5-butanoic acid sodium salt]
In vitro
  endothelial cell growth action, in words: shows endothelial cell growth action
Vascular endothelial cells in vitro
  HGF production, in words: increases HGF production in vascular endothelial cells in vitro
